Article PMC7369900 (International Journal of Molecular Sciences, 2020)
Converted amounts (≈) assume the structure as drawn.

How the values were obtained:
[1] = tested on: LLC-PK1; test: cells; assay type: cell-based, pig; conditions: LLC-PK1, 72 h, MTT
Description: (§1) Among the conjugates, LVXC-S-S-CTP10-NH2 (5) was the least cytotoxic. […] In the case of HEK 293 and LLC-PK1 cells, the IC50 values of 5 were nearly four times higher. […] Additionally, we noted that the cancer cells Hep G2 were less sensitive to the action of the given compounds than the non-cancer cells (HEK 293 and LLC-PK1).
(§2) Cytotoxicity was assessed against three mammalian cell lines: LLC-PK1, Hep G2, and HEK 293. Multiwell (96–well) plates were seeded at 7000 cells/well in Medium 199 supplemented with 7.5% FBS, MEM Eagle’s medium supplemented with 10% FBS, or DMEM medium supplemented with 10% FBS, respectively. All media were supplemented with L-glutamine and antibiotics (penicillin/streptomycin). Cells were allowed to attach overnight. Drugs were dissolved in cell culture medium and added to wells in 100-µL aliquots of 2× concentrated solutions, in triplicates. To control wells, 100 µL of the medium were added. Cells were incubated with the studied compounds for 72 h at 37 °C and 95%/5% or 90%/10% (HEK 293 cells) CO2 atmosphere. Then, 20-µL aliquots of MTT solution in PBS (4 mg/mL) were added to all wells and plates were incubated further for 3 h in 37 °C. Formazan crystals formed were dissolved in 100 µL of DMSO and the absorbance of the solutions was measured using a multiwell plate reader (Spark, Tecan, Männedorf, Switzerland) at λ = 540 nm. Cytotoxicity was determined compared to the drug-free control. All experiments were performed in triplicates.

[2] = tested on: Hep G2; test: cells; assay type: cell-based, human; conditions: Hep G2, 72 h, MTT
Description: as §1, §2

[3] = tested on: HEK 293; test: cells; assay type: cell-based, human; conditions: HEK 293, 72 h, MTT
Description: as §1, §2

[4] = tested on: C. glabrata DSM 11226
[5] = tested on: C. albicans Δopt1Δopt5Δptr2Δptr22
[6] = tested on: Gram-positive and Gram-negative bacteria; assay type: cell-based; conditions: MHB, Gram-positive bacteria
Description: (§3) The antibacterial activity of TP10-NH2-based conjugates, as well as its constituents, was evaluated by microdilution assay in Mueller Hinton broth, MHB (Table 1). […] There are, however, some exceptions. […] Its activity against two other tested bacteria was somewhat lower though.
(§4) The antibacterial activity (bacteriostatic: MIC and bactericidal: MBC) of the tested compounds was determined in MHB (Mueller Hinton Broth, Sigma Aldrich, St. Louis, MO, USA) using a serial two-fold dilution method in 96-well microtiter plates according to CLSI recommendations, described in M07-A10 document. The exact conditions have been described previously. All experiments were performed in three replicates. The MIC90 and MIC50 values were defined as the concentrations of compounds tested that caused a 90% or 50% reduction of growth, respectively, comparing to the drug-free control.

[7] = tested on: C. albicans Gu4
[8] = tested on: E. coli ATCC 25922; test: microbe, parasite or virus in culture; assay type: cell-based, Escherichia coli; conditions: E. coli ATCC 25922, MHB
Description: as §3, §4

[9] = tested on: C. albicans SC 5314
[10] = biological target: T1, yeast DNA topoisomerase II (Saccharomyces cerevisiae, UniProt P06786); test: biochemical; assay type: biochemical; conditions: class; read-out: Topoisomerase II Inhibition
T1 construct: purchased Inspiralis (Norwich, UK)
T1 sequence (P06786 whole entry): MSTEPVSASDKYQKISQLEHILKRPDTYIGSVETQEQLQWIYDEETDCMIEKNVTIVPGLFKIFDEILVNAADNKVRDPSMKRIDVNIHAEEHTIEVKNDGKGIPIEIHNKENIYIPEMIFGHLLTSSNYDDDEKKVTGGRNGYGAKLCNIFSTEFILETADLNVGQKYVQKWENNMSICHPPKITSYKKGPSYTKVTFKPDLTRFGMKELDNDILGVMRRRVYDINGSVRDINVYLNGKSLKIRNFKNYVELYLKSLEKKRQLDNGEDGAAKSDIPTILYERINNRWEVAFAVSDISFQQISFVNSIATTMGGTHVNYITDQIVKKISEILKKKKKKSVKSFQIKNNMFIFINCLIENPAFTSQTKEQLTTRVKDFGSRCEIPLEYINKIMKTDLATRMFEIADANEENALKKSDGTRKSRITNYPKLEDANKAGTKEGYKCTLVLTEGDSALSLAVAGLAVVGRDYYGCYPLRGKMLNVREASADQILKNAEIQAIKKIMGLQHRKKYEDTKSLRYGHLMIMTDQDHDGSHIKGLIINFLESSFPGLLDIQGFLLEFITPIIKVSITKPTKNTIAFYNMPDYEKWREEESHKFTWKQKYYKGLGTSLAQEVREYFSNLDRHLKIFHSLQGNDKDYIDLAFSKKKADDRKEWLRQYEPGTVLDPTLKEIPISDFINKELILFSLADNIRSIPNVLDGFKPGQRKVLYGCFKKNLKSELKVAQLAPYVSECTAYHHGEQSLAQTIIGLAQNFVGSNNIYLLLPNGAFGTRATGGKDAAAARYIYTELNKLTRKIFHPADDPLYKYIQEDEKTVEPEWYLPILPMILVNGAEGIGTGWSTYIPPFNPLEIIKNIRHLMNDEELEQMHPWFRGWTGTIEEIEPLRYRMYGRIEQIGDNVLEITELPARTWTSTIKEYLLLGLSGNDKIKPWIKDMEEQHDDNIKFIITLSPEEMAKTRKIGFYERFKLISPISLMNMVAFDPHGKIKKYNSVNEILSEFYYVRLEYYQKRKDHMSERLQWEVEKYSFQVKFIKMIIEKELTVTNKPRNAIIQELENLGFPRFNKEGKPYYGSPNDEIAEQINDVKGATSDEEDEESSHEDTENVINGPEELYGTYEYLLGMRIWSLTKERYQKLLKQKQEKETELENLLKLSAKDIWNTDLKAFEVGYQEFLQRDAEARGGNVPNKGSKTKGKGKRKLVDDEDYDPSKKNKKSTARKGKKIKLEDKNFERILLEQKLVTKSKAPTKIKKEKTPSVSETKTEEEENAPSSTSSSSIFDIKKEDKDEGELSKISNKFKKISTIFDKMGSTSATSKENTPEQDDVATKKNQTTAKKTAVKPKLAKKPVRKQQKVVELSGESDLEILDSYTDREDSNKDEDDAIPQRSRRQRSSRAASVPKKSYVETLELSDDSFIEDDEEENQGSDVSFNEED

[11] = tested on: S. epidermidis ATCC 12228; test: microbe, parasite or virus in culture; assay type: cell-based, Staphylococcus epidermidis; conditions: S. epidermidis ATCC 12228, MHB
Description: as §3, §4

[12] = tested on: HEK 293; test: ROS generation (CM-H2DCFDA, flow cytometry); assay type: cell-based, human; conditions: for ROS HEK 293: positive cells in 24 h, class
Description: (§5) In the positive controls treated with H2O2, the fraction of ROS-positive cells exceeded 75%. […] Strikingly, in HL-60, a biologically significant effect was observed almost immediately (after 15 min of incubation). The same was noted after 1 h in the HEK 293 cell line. […] Similarly, conjugates 4 and 5 generated ROS at the low level (less than 15% for HL-60 and less than 20% for HEK 293) (manuscript in preparation). […] For HL-60, the critical level of ROS was noted after 15 min of incubation.
(§6) ROS generation activity was evaluated as described previously. Briefly, HEK 293 cells were seeded on 35-mm Petri dishes in the amount of 15,000 cells per plate for 24 h in DMEM medium. […] Positive controls contained 250 µM H2O2, while negative controls were without any additions. After 0.5, 2.5, 5.5, and 24 h of incubation at 37 °C, the CM-H2DCFDA molecular probe (Thermo Fischer Scientific, Waltham, USA) was added to the plates and incubation was continued for another 0.5 h. The HEK 293 cells were detached with 0.05% trypsin solution in PBS and HBSS (Hank’s Balanced Salt Solution) and suspended in fresh DMEM medium. All samples were additionally stained with 7-AAD (7-aminoactinomycin D, 0.8 µg/mL) and immediately analysed with a Guava easyCyte flow cytometer (Merc, Burlington, USA). The determinations were performed in triplicates.

[13] = tested on: HL-60; test: ROS generation (CM-H2DCFDA, flow cytometry); assay type: cell-based, human; conditions: for ROS HL-60: positive cells in 24 h, class
Description: as §5, §6

[14] = tested on: P. aeruginosa ATCC 27853; test: microbe, parasite or virus in culture; assay type: cell-based, Pseudomonas aeruginosa; conditions: P. aeruginosa ATCC 27853, MHB
Description: as §3, §4

[15] = tested on: S. aureus ATCC 29213; test: microbe, parasite or virus in culture; assay type: cell-based, Staphylococcus aureus; conditions: S. aureus ATCC 29213, MHB
Description: as §3, §4

[16] = tested on: C. krusei DSM 6128
[17] = tested on: human red blood cells; test: Hemolysis assay; conditions: 1 h, 37 °C

SMILES	IC50 [1] [µM]	IC50 [2] [µM]	IC50 [3] [µM]	MIC50 [4] [µM]	MIC50 [5] [µM]	MIC90 [5] [µM]	MIC50 [7] [µM]	MIC50 [8] [µM]	MIC90 [8] [µM]	MIC50 [9] [µM]	MIC90 [9] [µM]	IC50 [10] [µM]	MIC50 [11] [µM]	MIC90 [11] [µM]	ROS HEK 293 [12]	MIC50 [14] [µM]	MIC90 [14] [µM]	MIC50 [15] [µM]	MIC90 [15] [µM]	MIC50 [16] [µM]	other results
CC[C@H](C)[C@H](NC(=O)[C@H](CCCCN)NC(=O)[C@H](CCCCN)NC(=O)[C@H](C)NC(=O)[C@H](CC(C)C)NC(=O)[C@H](C)NC(=O)[C@H](C)NC(=O)[C@H](CC(C)C)NC(=O)[C@H](C)NC(=O)[C@H](CCCCN)NC(=O)[C@H](CC(C)C)NC(=O)[C@H](CC(N)=O)NC(=O)[C@@H](NC(=O)[C@H](CCCCN)NC(=O)CNC(=O)[C@H](CC(C)C)NC(=O)[C@H](CC(C)C)NC(=O)[C@H](Cc1ccc(O)cc1)NC(=O)CNC(=O)[C@H](C)NC(=O)[C@@H](N)CS)[C@@H](C)CC)C(=O)N[C@@H](CC(C)C)C(N)=O [CTP10-NH2]	51.6 ± 8.66	60 ± 5.75	19.5 ± 2.93	–	–	–	–	–	–	–	–	–	–	–	–	–	–	–	–	–	–
CC[C@H](C)[C@H](NC(=O)[C@H](CCCCN)NC(=O)[C@H](CCCCN)NC(=O)[C@H](C)NC(=O)[C@H](CC(C)C)NC(=O)[C@H](C)NC(=O)[C@H](C)NC(=O)[C@H](CC(C)C)NC(=O)[C@H](C)NC(=O)[C@H](CCCCN)NC(=O)[C@H](CC(C)C)NC(=O)[C@H](CC(N)=O)NC(=O)[C@@H](NC(=O)[C@H](CCCCN)NC(=O)CNC(=O)[C@H](CC(C)C)NC(=O)[C@H](CC(C)C)NC(=O)[C@H](Cc1ccc(O)cc1)NC(=O)CNC(=O)[C@H](C)NC(=O)c1cn2c3c(c(N4CCN(C)CC4)c(F)cc3c1=O)OC[C@@H]2C)[C@@H](C)CC)C(=O)N[C@@H](CC(C)C)C(N)=O [Compound 4, LVX-TP10-NH2]	52.9 ± 8.15	72.6 ± 13	22.5 ± 9.7	>200	100 (≈ 253 µg/mL)	100 (≈ 253 µg/mL)	25 (≈ 63.1 µg/mL)	50 (≈ 126 µg/mL)	50 (≈ 126 µg/mL)	50 (≈ 126 µg/mL)	100 (≈ 253 µg/mL)	< 10	1.6 (≈ 4.04 µg/mL)	1.6 (≈ 4.04 µg/mL)	++ (++ <10% positive cells in 24 h)	100 (≈ 253 µg/mL)	100 (≈ 253 µg/mL)	1.6 (≈ 4.04 µg/mL)	1.6 (≈ 4.04 µg/mL)	100 (≈ 253 µg/mL)	MIC90 against Gram-positive bacteria [6]: 1.6 µM (≈ 4.04 µg/mL); ROS level (positive cells) ([12]; HEK 293): less than 20%; ROS level (positive cells) ([13]; HL-60): less than 15%; ROS HL-60 [13]: + (+ <15% positive cells in 24 h)
CC[C@H](C)[C@H](NC(=O)[C@H](CCCCN)NC(=O)[C@H](CCCCN)NC(=O)[C@H](C)NC(=O)[C@H](CC(C)C)NC(=O)[C@H](C)NC(=O)[C@H](C)NC(=O)[C@H](CC(C)C)NC(=O)[C@H](C)NC(=O)[C@H](CCCCN)NC(=O)[C@H](CC(C)C)NC(=O)[C@H](CC(N)=O)NC(=O)[C@@H](NC(=O)[C@H](CCCCN)NC(=O)CNC(=O)[C@H](CC(C)C)NC(=O)[C@H](CC(C)C)NC(=O)[C@H](Cc1ccc(O)cc1)NC(=O)CNC(=O)[C@H](C)NC(=O)[C@@H](N)CSSC[C@H](NC(=O)c1cn2c3c(c(N4CCN(C)CC4)c(F)cc3c1=O)OC[C@@H]2C)C(=O)O)[C@@H](C)CC)C(=O)N[C@@H](CC(C)C)C(N)=O [Compound 5, LVXC-S-S-CTP10-NH2]	105 ± 15.6	102 ± 4.9	41.3 ± 1.1	>200	12.5 (≈ 34.3 µg/mL)	25 (≈ 68.7 µg/mL)	12.5 (≈ 34.3 µg/mL)	3.125 (≈ 8.59 µg/mL)	3.125 (≈ 8.59 µg/mL)	12.5 (≈ 34.3 µg/mL)	25 (≈ 68.7 µg/mL)	< 50	3.125 (≈ 8.59 µg/mL)	3.125 (≈ 8.59 µg/mL)	++ (++ <10% positive cells in 24 h)	12.5 (≈ 34.3 µg/mL)	25 (≈ 68.7 µg/mL)	6.25 (≈ 17.2 µg/mL)	6.25 (≈ 17.2 µg/mL)	50 (≈ 137 µg/mL)	MHC50 (concentration causing 50% hemolysis) [17]: 140 µg/mL; MHC50 (concentration causing 50% hemolysis) ([17]; converted from μg/mL): ~ 51 μM; ROS level (positive cells) ([12]; HEK 293): less than 20%; ROS level (positive cells) ([13]; HL-60): less than 15%; ROS HL-60 [13]: ++ (++ <10% positive cells in 24 h)
CC[C@H](C)[C@H](NC(=O)[C@H](CCCCN)NC(=O)[C@H](CCCCN)NC(=O)[C@H](C)NC(=O)[C@H](CC(C)C)NC(=O)[C@H](C)NC(=O)[C@H](C)NC(=O)[C@H](CC(C)C)NC(=O)[C@H](C)NC(=O)[C@H](CCCCN)NC(=O)[C@H](CC(C)C)NC(=O)[C@H](CC(N)=O)NC(=O)[C@@H](NC(=O)[C@H](CCCCN)NC(=O)CNC(=O)[C@H](CC(C)C)NC(=O)[C@H](CC(C)C)NC(=O)[C@H](Cc1ccc(O)cc1)NC(=O)CNC(=O)[C@H](C)NC(=O)[C@@H](N)CSSC[C@H](N)C(=O)N1CCN(c2cc3c(cc2F)c(=O)c(C(=O)O)cn3C2CC2)CC1)[C@@H](C)CC)C(=O)N[C@@H](CC(C)C)C(N)=O [Compound 6, CIPC-S-S-CTP10-NH2]	21.3 ± 1.33	37.7 ± 2.84	20.8 ± 10.9	>200	50 (≈ 136 µg/mL)	50 (≈ 136 µg/mL)	25 (≈ 67.9 µg/mL)	6.25 (≈ 17 µg/mL)	6.25 (≈ 17 µg/mL)	50 (≈ 136 µg/mL)	–	–	6.25 (≈ 17 µg/mL)	6.25 (≈ 17 µg/mL)	++ (++ <10% positive cells in 24 h)	>100	>100	3.125 (≈ 8.49 µg/mL)	3.125 (≈ 8.49 µg/mL)	>200	ROS induction ([12]; HEK 293): did not induce a significant level of ROS; Incubation time at which significant/critical ROS level was noted ([13]; HL-60): 15 min
